The target of this test is recombinant human SAE enzyme (Homo sapiens (Human), UniProt Q9UBT2). Description: SAE HTRF enzyme assay. The test is classed as biochemical. As to conditions: for inhibition at 0.111 µM: read-out: Percent Inhibition; for pIC50: class symbols A/B/C; for IC50: SAE inhibition, class symbols, legend in nM. Put shortly: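 This HTRF format monitors Sumo-Flag–Ubc9-GST thioester formation catalysed by 0.11 nM human SAE with 0.5 μM ATP over 105 min at 24° C. Inhibition is expressed at a single concentration or as IC50.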
Chain of recombinant human SAE enzyme (Q9UBT2 whole entry): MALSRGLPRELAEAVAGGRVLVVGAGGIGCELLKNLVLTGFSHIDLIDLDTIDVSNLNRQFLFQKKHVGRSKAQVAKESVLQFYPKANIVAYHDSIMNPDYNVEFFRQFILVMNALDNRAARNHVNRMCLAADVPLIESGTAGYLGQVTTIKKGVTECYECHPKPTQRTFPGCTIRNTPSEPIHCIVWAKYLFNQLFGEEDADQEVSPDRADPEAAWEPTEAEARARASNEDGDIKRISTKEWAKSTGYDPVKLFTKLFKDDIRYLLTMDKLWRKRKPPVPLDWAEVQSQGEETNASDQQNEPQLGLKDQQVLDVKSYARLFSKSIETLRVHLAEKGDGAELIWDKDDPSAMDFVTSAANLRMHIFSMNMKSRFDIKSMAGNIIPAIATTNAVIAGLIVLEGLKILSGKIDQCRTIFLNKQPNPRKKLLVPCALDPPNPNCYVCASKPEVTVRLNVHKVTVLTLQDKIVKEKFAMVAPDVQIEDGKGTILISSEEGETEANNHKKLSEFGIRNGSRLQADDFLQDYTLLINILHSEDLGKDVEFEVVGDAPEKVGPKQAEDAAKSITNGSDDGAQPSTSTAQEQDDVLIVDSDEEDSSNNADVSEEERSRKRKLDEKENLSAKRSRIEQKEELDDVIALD
Chain of recombinant human SAE enzyme (Q9UBE0 whole entry partner): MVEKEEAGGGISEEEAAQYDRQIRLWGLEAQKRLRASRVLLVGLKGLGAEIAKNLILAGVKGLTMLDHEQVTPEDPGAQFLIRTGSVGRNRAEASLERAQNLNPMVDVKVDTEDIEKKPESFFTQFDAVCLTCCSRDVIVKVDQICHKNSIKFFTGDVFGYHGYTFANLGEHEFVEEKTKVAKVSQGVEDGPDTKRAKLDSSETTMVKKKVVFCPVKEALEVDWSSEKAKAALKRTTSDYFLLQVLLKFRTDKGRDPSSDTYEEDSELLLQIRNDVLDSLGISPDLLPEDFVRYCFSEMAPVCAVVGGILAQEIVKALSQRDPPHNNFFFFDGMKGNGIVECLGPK
(In general: Time-resolved FRET reads energy transfer from a long-lived donor to a nearby acceptor.)

Where [1] appears, read: SAE inhibition at compound concentration 0.111 μM.

pIC50: −log10 of the molar value.

In the case of `CN(C)Cc1cn(Cc2csc(C(=O)c3cncnc3N[C@@H]3C[C@H](COS(N)(=O)=O)[C@@H](O)C3)c2)c2ccccc12` [I-221, {(1R,2S,4R)-4-[(5-{[4-({3-[(dimethylamino)methyl]-1H-indol-1-yl}methyl)-2-thienyl]carbonyl}pyrimidin-4-yl)amino]-2-hydroxycyclopentyl}methyl sulfamate], the negative-log IC50 (pIC50) (in general, the negative decadic logarithm of the IC50, by convention in mol/L) is 6.00 to 7.00. The inhibition (as a rule, the share of the control response that was lost under treatment) at 0.111 µM (Concentration 0.111 μM) stood at 30%.
On to `NS(=O)(=O)OC[C@H]1C[C@@H](Nc2ncncc2C(=O)c2cc([C@@H]3SCCc4ccc(Cl)cc43)cs2)[C@H](O)[C@@H]1O` (mixture of isomers) [I-278, [(1R,2R,3S,4R)-4-{[5-({4-[(1R)-7-chloro-3,4-dihydro-1H-isothiochromen-1-yl]-2-thienyl}carbonyl)pyrimidin-4-yl]amino}-2,3-dihydroxycyclopentyl]methyl sulfamate and [(1R,2R,3S,4R)-4-{[5-({4-[(1S)-7-chloro-3,4-dihydro-1H-isothiochromen-1-yl]-2-thienyl}carbonyl)pyrimidin-4-yl]amino}-2,3-dihydroxycyclopentyl]methyl sulfamate], for which the pIC50 was over 8.00. Moreover, under “Concentration 0.111 μM”, the “Percent Inhibition” value is reported as 98.
On to `N[C@@H](c1cccc(Cl)c1)c1cc(C(=O)c2cncnc2N[C@@H]2C[C@H](COS(N)(=O)=O)[C@@H](O)[C@H]2O)sc1Cl` (single isomer, unassigned) [I-14b, [(1R,2R,3S,4R)-4-{[5-({4-[(S)-Amino(3-chlorophenyl)methyl]-5-chloro-2-thienyl)carbonyl)pyrimidin-4-yl]amino}-2,3-dihydroxycyclopentyl]methyl sulfamate or [(1R,2R,3S,4R)-4-{[5-({4-[(R)-Amino(3-chlorophenyl)methyl]-5-chloro-2-thienyl}carbonyl)pyrimidin-4-yl]amino}-2,3-dihydroxycyclopentyl]methyl sulfamate], for which the pIC50 is over 8.00. The “Percent Inhibition” value (Concentration 0.111 μM) turned out to be 95.
As for `NS(=O)(=O)OC[C@H]1C[C@@H](Nc2ncncc2C(=O)c2cc([C@@H]3OCCc4ccccc43)cs2)C[C@@H]1O` (single isomer, unassigned) [I-254b, [(1R,2S,4R)-4-{[5-({4-[(1R)-3,4-dihydro-1H-isochromen-1-yl]-2-thienyl}carbonyl)pyrimidin-4-yl]amino}-2-hydroxycyclopentyl]methyl sulfamate or [(1R,2S,4R)-4-{[5-({4-[(S)-3,4-dihydro-1H-isochromen-1-yl]-2-thienyl}carbonyl)pyrimidin-4-yl]amino}-2-hydroxycyclopentyl]methyl sulfamate], the pIC50 is over 8.00. Further, under “Concentration 0.111 μM”, the “Percent Inhibition” value is given as 99.
On to `Cc1sc(C(=O)c2cncnc2N[C@@H]2C[C@H](COS(N)(=O)=O)[C@@H](O)C2)cc1[C@@H]1OCCn2c(C)cnc21` (mixture of isomers) [I-296, [(1R,2S,4R)-2-hydroxy-4-{[5-({5-methyl-4-[(8S)-3-methyl-5,6-dihydro-8H-imidazo[2,1-c][1,4]oxazin-8-yl]-2-thienyl}carbonyl)pyrimidin-4-yl]amino}cyclopentyl]methyl sulfamate and [(1R,2S,4R)-2-hydroxy-4-{[5-({5-methyl-4-[(8R)-3-methyl-5,6-dihydro-8H-imidazo[2,1-c][1,4]oxazin-8-yl]-2-thienyl}carbonyl)pyrimidin-4-yl]amino}cyclopentyl]methyl sulfamate], for which the IC50 – broadly, the concentration needed to halve the response being measured – is under 10 nM. Besides, the “Percent Inhibition” value under setting [1] is 98%.
In the case of `NS(=O)(=O)OC[C@H]1C[C@@H](Nc2ncncc2C(=O)c2cc(Cn3ccc4ccncc43)cs2)C[C@@H]1O` [I-186, {(1R,2S,4R)-2-hydroxy-4-[(5-{[4-(1H-pyrrolo[2,3-c]pyridin-1-ylmethyl)-2-thienyl]carbonyl}pyrimidin-4-yl)amino]cyclopentyl}methyl sulfamate], the pIC50 is 7.00 to 8.00. Moreover, the inhibition at 0.111 µM (Concentration 0.111 μM) worked out at 83%.
`Cc1sc(C(=O)c2cncnc2N[C@@H]2C[C@H](COS(N)(=O)=O)[C@@H](O)C2)cc1[C@@H]1OCCc2ccc(Cl)nc21` (single isomer, unassigned) [I-286a, [(1R,2S,4R)-4-{[5-({4-[(8S)-2-chloro-5,8-dihydro-6H-pyrano[3,4-b]pyridin-8-yl]-5-methyl-2-thienyl}carbonyl)pyrimidin-4-yl]amino}-2-hydroxycyclopentyl]methyl sulfamate or [(1R,2S,4R)-4-{[5-({4-[(8R)-2-chloro-5,8-dihydro-6H-pyrano[3,4-b]pyridin-8-yl]-5-methyl-2-thienyl}carbonyl)pyrimidin-4-yl]amino}-2-hydroxycyclopentyl]methyl sulfamate]: the IC50 lay in the range of 100 to 1000 nM. Further, the “Percent Inhibition” value under setting [1] is on record as 39%.
As to “[(1R,2S,4R)-2-hydroxy-4-({5-[(5-methyl-4-{(R)-[3-(trifluoromethyl)phenyl]sulfinyl}-2-thienyl)carbonyl]pyrimidin-4-yl}amino)cyclopentyl]methyl sulfamate and [(1R,2S,4R)-2-hydroxy-4-({5-[(5-methyl-4-{(S)-[3-(trifluoromethyl)phenyl]sulfinyl}-2-thienyl)carbonyl]pyrimidin-4-yl}amino)cyclopentyl]methyl sulfamate [I-69]”, the pIC50 is over 8.00. Besides, the “Percent Inhibition” value (Concentration 0.111 μM) was 100.
As to `Cc1sc(C(=O)c2cncnc2N[C@@H]2C[C@H](COS(N)(=O)=O)[C@@H](O)C2)cc1CN1CCc2ccc(C#N)cc21` [I-128, [(1R,2S,4R)-4-{[5-({4-[(6-cyano-2,3-dihydro-1H-indol-1-yl)methyl]-5-methyl-2-thienyl}carbonyl)pyrimidin-4-yl]amino}-2-hydroxycyclopentyl]methyl sulfamate], the pIC50 is over 8.00. Besides, where the note is “Concentration 0.111 μM”, the inhibition at 0.111 µM is 95%.
`Cc1sc(C(=O)c2cncnc2N[C@@H]2C[C@H](COS(N)(=O)=O)[C@@H](O)C2)cc1C1OCCc2ccc(C(F)(F)F)nc21` (single isomer, unassigned) [I-297b, [(1R,2S,4R)-2-hydroxy-4-{[5-({5-methyl-4-[(8S)-2-(trifluoromethyl)-5,8-dihydro-6H-pyrano[3,4-b]pyridin-8-yl]-2-thienyl}carbonyl)pyrimidin-4-yl]amino}cyclopentyl]methyl sulfamate or [(1R,2S,4R)-2-hydroxy-4-{[5-({5-methyl-4-[(8R)-2-(trifluoromethyl)-5,8-dihydro-6H-pyrano[3,4-b]pyridin-8-yl]-2-thienyl}carbonyl)pyrimidin-4-yl]amino}cyclopentyl]methyl sulfamate]: the IC50 was under 10 nM. Besides, under setting [1], the “Percent Inhibition” value was 99%.
Regarding `NS(=O)(=O)OC[C@H]1C[C@@H](Nc2ncncc2C(=O)c2ccc(Cc3cccc(Cl)c3)o2)C[C@@H]1O` [I-93, [(1R,2S,4R)-4-({5-[5-(3-chlorobenzyl)-2-furoyl]pyrimidin-4-yl}amino)-2-hydroxycyclopentyl]methyl sulfamate], the inhibition at 0.111 µM (Concentration 0.111 μM) was 98%.
For the compound `C[C@](N)(c1cccc(Br)c1)c1csc(C(=O)c2cncnc2N[C@@H]2C[C@H](COS(N)(=O)=O)[C@@H](O)[C@H]2O)c1` (single isomer, unassigned) [I-27a, [(1R,2R,3S,4R)-4-{[5-({4-[(1S)-1-amino-1-(3-bromophenyl)ethyl]-2-thienyl}carbonyl)pyrimidin-4-yl]amino}-2,3-dihydroxycyclopentyl]methyl sulfamate or [(1R,2R,3S,4R)-4-{[5-({4-[(1R)-1-amino-1-(3-bromophenyl)ethyl]-2-thienyl}carbonyl)pyrimidin-4-yl]amino}-2,3-dihydroxycyclopentyl]methyl sulfamate], the pIC50 is over 8.00. Besides, the “Percent Inhibition” value (Concentration 0.111 μM) is listed as 96.
In the case of `CC(C)[C@@H](O)c1cc(C(=O)c2cncnc2N[C@@H]2C[C@H](COS(N)(=O)=O)[C@@H](O)C2)sc1Cl` (mixture of isomers) [I-195, [(1R,2S,4R)-4-{[5-({5-chloro-4-[(1R)-1-hydroxy-2-methylpropyl]-2-thienyl}carbonyl)pyrimidin-4-yl]amino}-2-hydroxycyclopentyl]methyl sulfamate and [(1R,2S,4R)-4-{[5-({5-chloro-4-[(1S)-1-hydroxy-2-methylpropyl]-2-thienyl}carbonyl)pyrimidin-4-yl]amino}-2-hydroxycyclopentyl]methyl sulfamate], the pIC50 is 7.00 to 8.00. The “Percent Inhibition” value (Concentration 0.111 μM) was determined as 68.
For the compound `NS(=O)(=O)OC[C@H]1C[C@@H](Nc2ncncc2C(=O)c2cc(C3OCCc4ccc(Cl)cc43)cs2)C[C@@H]1O` (single isomer, unassigned) [I-261a, [(1R,2S,4R)-4-{[5-({4-[(1R)-7-chloro-3,4-dihydro-1H-isochromen-1-yl]-2-thienyl}carbonyl)pyrimidin-4-yl]amino}-2-hydroxycyclopentyl]methyl sulfamate or [(1R,2S,4R)-4-{[5-({4-[(1S)-7-chloro-3,4-dihydro-1H-isochromen-1-yl]-2-thienyl}carbonyl)pyrimidin-4-yl]amino}-2-hydroxycyclopentyl]methyl sulfamate], the pIC50 is 7.00 to 8.00. For the same compound, the “Percent Inhibition” value (Concentration 0.111 μM) turned out to be 76.
Regarding `NS(=O)(=O)OCC1CC(Nc2ncncc2C(=O)c2cc(C3OCCc4ccc(Cl)cc43)c(Cl)s2)CC1O` (mixture of isomers) [I-282, [(1R,2S,4R)-4-{[5-({5-chloro-4-[(1R)-7-chloro-3,4-dihydro-1H-isochromen-1-yl]-2-thienyl}carbonyl)pyrimidin-4-yl]amino}-2-hydroxycyclopentyl]methyl sulfamate and [(1R,2S,4R)-4-{[5-({5-chloro-4-[(1S)-7-chloro-3,4-dihydro-1H-isochromen-1-yl]-2-thienyl}carbonyl)pyrimidin-4-yl]amino}-2-hydroxycyclopentyl]methyl sulfamate], the IC50 was under 10 nM. For the same compound, the “Percent Inhibition” value under setting [1] is 100%.

(Values after US10780090B2, “Heteroaryl compounds useful as inhibitors of SUMO activating enzyme” (Millennium Pharmaceuticals, Inc., priority 2014, dated 2020).)
